From paper PMC10584170, “Machine learning-based phenotypic imaging to characterise the targetable biology of Plasmodium falciparum male gametocytes for the development of transmission-blocking antimalarials” (PLOS Pathogens, 2023)

Tests used:
[1] = tested on: P. falciparum male gametocytes; test: P. falciparum Dual Gamete Formation Assay (PfDGFA), male readout (exflagellation); assay type: cell-based, Plasmodium falciparum NF54; conditions: for % inhibition male (individual replicates) R1: replicate R1; for % inhibition male (individual replicates) R3: replicate R3; for % inhibition male (individual replicates) R4: replicate R4; for Average inhibition male (%): average of replicates; for Activity: hit = >50% inhibition in male or female readout in at least 3 replicates, 0 = no class assigned
Procedure, shortened: (§1)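 First, day-14 P. falciparum NF54 gametocytes receive compound for 24 h at 37°C in 1% O2/3% CO2. Next, ookinete medium with Cy3 anti-Pfs25 triggers gametogenesis at 28°C and male exflagellation is imaged. Finally, after 24 h in the dark, Cy3-labelled females are imaged.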

[2] = tested on: P. falciparum female gametocytes; test: P. falciparum Dual Gamete Formation Assay (PfDGFA), female readout (Pfs25-positive female gametes); assay type: cell-based, Plasmodium falciparum NF54; conditions: for % inhibition female (individual replicates) R1: replicate R1; for % inhibition female (individual replicates) R3: replicate R3; for % inhibition female (individual replicates) R4: replicate R4; for Average inhibition female (%): average of replicates
Procedure, shortened: as §1

[3] = PfDGFA at 2µM, 24h preincubation with gametocytes prior to induction of gametogenesis
[4] = PfDGFA at 2µM, 24h preincubation
[5] = 2µM, 24h preincubation with gametocytes prior to induction of gametogenesis
[6] = 2µM, 24h preincubation, number of replicates with >50% inhibition in the male readout
[7] = 2µM, 24h preincubation, number of replicates with >50% inhibition in the female readout
[8] = PfDGFA at 2µM, 24h preincubation with gametocytes
[9] = 2µM, 24h preincubation, hits selected on >50% inhibition in the male readout across replicates
[10] = 2µM, 24h preincubation, hits selected on >50% inhibition in the female readout across replicates

| Structure (SMILES) | Average inhibition male (%) [1, 5] | % inhibition male (individual replicates) R1 [1, 5] | % inhibition male (individual replicates) R3 [1, 5] | % inhibition male (individual replicates) R4 [1, 5] | HitlevelM [1, 6] | Average inhibition female (%) [2, 5] | % inhibition female (individual replicates) R1 [2, 5] | % inhibition female (individual replicates) R3 [2, 5] | % inhibition female (individual replicates) R4 [2, 5] | HitlevelF [2, 7] | also measured |
| --- | --- | --- | --- | --- | --- | --- | --- | --- | --- | --- | --- |
| CCc1c(CCNCCCCCCNCCc2ccc(Br)cc2)ccc(OC)c1OC.Cl [TCMDC-132045] | – | – | – | – | – | – | – | – | – | – | % inhibition male (individual replicates) R1 [1, 3]: -2.0%; % inhibition male (individual replicates) R3 [1, 3]: 7.0%; % inhibition male (individual replicates) R4 [1, 3]: 22.9%; Average inhibition male (%) [1, 4]: 10.8%; % inhibition female (individual replicates) R1 [2, 3]: -8.2%; % inhibition female (individual replicates) R3 [2, 3]: -48.0%; % inhibition female (individual replicates) R4 [2, 3]: -18.3%; Average inhibition female (%) [2, 4]: -21.6% |
| CCc1c(CCNCCCCCCNCCc2ccc(OC)c(OC)c2CC)ccc(OC)c1OC.Cl [TCMDC-132047] | 61.2% | 56.6% | 45.7% | 80.2% | 3 | 17.9% | 11.5% | 7.6% | 17.6% | 0 | – |
| CCc1c(CCNCCCCCCNC(C)Cc2ccc3c(c2CC)OCO3)ccc(OC)c1OC.Cl (stereo not drawn) [TCMDC-132052] | – | – | – | – | – | – | – | – | – | – | Average inhibition male (%) [1, 8]: 79.1%; % inhibition male (individual replicates) R1 [1, 8]: 84.5%; % inhibition male (individual replicates) R3 [1, 8]: 62.9%; % inhibition male (individual replicates) R4 [1, 8]: 90.9%; HitlevelM ([1]; number of replicates with >50% inhibition in the male readout, 2µM): 4; Average inhibition female (%) [2, 8]: 26.4%; % inhibition female (individual replicates) R1 [2, 8]: 34.8%; % inhibition female (individual replicates) R3 [2, 8]: 2.4%; % inhibition female (individual replicates) R4 [2, 8]: 23.2%; HitlevelF ([2]; number of replicates with >50% inhibition in the female readout, 2µM): 0 |
| CCc1c(CCNCCCCCCNCCc2ccc([N+](=O)[O-])cc2)ccc(OC)c1OC.Cl [TCMDC-132066] | 38.6% | 42.7% | 1.6% | 56.2% | 2 | 24.7% | 23.1% | 5.5% | 16.3% | 1 | – |
| CCc1c(CCNCCCCCCNCc2ccc3c(c2CC)OCO3)ccc(OC)c1OC.Cl [TCMDC-132068] | 39.4% | 42.2% | 19.5% | 56.9% | – | 13.2% | 18.0% | -2.7% | 25.3% | – | HitlevelM [1, 9]: 1; Activity [1, 4]: 0; HitlevelF [2, 10]: 0 |
| COc1cc2c(c(Cl)c1OC)CCN(C(=O)C(F)(F)F)CC2c1ccccc1 (stereo not drawn) [TCMDC-132071] | – | – | – | – | – | – | – | – | – | – | % inhibition male (individual replicates) R1 [1, 3]: 5.3%; % inhibition male (individual replicates) R3 [1, 3]: 19.8%; % inhibition male (individual replicates) R4 [1, 3]: -8.3%; Average inhibition male (%) [1, 4]: 3.7%; % inhibition female (individual replicates) R1 [2, 3]: 4.5%; % inhibition female (individual replicates) R3 [2, 3]: -4.3%; % inhibition female (individual replicates) R4 [2, 3]: 10.0%; Average inhibition female (%) [2, 4]: 2.1% |
| CCc1c(CCNCCCCCCNCCc2ccc3c(c2C)OCO3)ccc2c1OCO2.Cl [TCMDC-132093] | 59.8% | 52.8% | 37.9% | 88.2% | 3 | 43.6% | 28.1% | 50.1% | 47.8% | 1 | – |
| COc1ccc(-c2nc3c(N)nc(N)nc3nc2C(C)C)cc1 [TCMDC-132109] | -8.8% | -5.9% | -23.4% | -14.5% | – | 17.4% | 48.8% | -20.3% | 37.3% | – | HitlevelM [1, 9]: 0; Activity [1, 4]: 0; HitlevelF [2, 10]: 0 |
